Measured values from paper PMC5289826 (PLoS ONE, 2017).

How the values were obtained:
[1] = system: T1, recombinant human 11β-HSD2; test: 11β-HSD2 enzyme activity in cell lysates (cortisol to cortisone); assay type: biochemical; conditions: 1 μM compound; lysates of HEK-293 cells; 50 nM cortisol
T1 construct: expressed in transfected cells
Experimental: (§1) Human embryonic kidney (HEK-293) cells either stably expressing human 11β-HSD1 and H6PDH (HHH7 clone, [38]) or 11β-HSD2 (AT8 clone, [39]), or transiently expressing human 17β-HSD1 or 17β-HSD2, were cultivated in Dulbecco’s modified Eagle medium (DMEM) containing 4.5 g/L glucose, 10% fetal bovine serum, 100 U/mL penicillin, 0.1 mg/mL streptomycin, 1 × MEM nonessential amino acids, and 10 mM HEPES buffer, pH 7.4. Cells were washed with phosphate-buffered saline (PBS), centrifuged for 4 min at 150 × g, and the cell pellets were snap frozen on dry ice and stored at −80°C until further use.
(§2) Cell lysates were resuspended in TS2 buffer (100 mM NaCl, 1 mM EGTA, 1 mM EDTA, 1 mM MgCl2, 250 mM sucrose, 20 mM Tris-HCl, pH 7.4), followed by sonication at 4°C using a Hielscher UP50H ultrasonic processor (0.3 cycle, 20 amplitude %, 20 impulses; Hielscher Ultrasonics GmbH, Teltow Germany). Cell lysates, reaction mixture, and either vehicle (DMSO) or inhibitor were incubated for 10 min at 37°C in a final volume of 22.2 μL. The solvent concentration was 0.1%. […] 11β-HSD2 activity was measured in the presence of 50 nM cortisol and 500 μM NAD^+. An amount of 50 nCi of radiolabeled tracer substrate was included in the experiments. […] The bands of the corresponding steroids were excised, followed by scintillation counting and calculation of the amount of substrate conversion. Data were obtained from at least three independent measurements. Glycyrrhetinic acid (CTRL 1) was used as positive control for 11β-HSD1 and 11β-HSD2 inhibition, apigenin (CTRL 2) for 17β-HSD1, and compound 22 from Vuorinen et al. [40](CTRL 3) for 17β-HSD2 inhibition.

[2] = target: T2, recombinant human 11β-HSD1 (Homo sapiens, UniProt P28845); test: 11β-HSD1 enzyme activity in cell lysates (cortisone to cortisol, radiolabeled tracer, TLC); assay type: biochemical; conditions: for 11β-HSD1 Residual activity, % of control at 100 nM: 100 nM compound; for 11β-HSD1 Residual activity, % of control at 100 nM / 11β-HSD1 Residual activity, % of control at 1 μM: lysates of HEK-293 cells, 200 nM cortisone, mean of three experiments; for 11β-HSD1 Residual activity, % of control at 1 μM: 1 μM compound
T2 construct: expressed in transfected cells
T2 sequence (P28845 whole entry): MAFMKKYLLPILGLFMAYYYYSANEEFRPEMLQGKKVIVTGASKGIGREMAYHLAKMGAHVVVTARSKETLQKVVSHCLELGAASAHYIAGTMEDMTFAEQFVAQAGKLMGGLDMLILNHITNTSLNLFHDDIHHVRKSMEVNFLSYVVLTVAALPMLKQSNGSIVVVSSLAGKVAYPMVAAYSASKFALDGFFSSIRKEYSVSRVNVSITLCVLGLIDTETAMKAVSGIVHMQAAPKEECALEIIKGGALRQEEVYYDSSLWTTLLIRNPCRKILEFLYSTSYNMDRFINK
Experimental: as §1, §2

Row | SMILES | 11β-HSD2 Residual activity, % of control at 1 μM [1] | IC50 [2] [µM] | 11β-HSD1 Residual activity, % of control at 100 nM [2] | 11β-HSD1 Residual activity, % of control at 1 μM [2] | activity towards 11β-HSD1 (in words) ([2]; at 1 μM, cell lysates)
1 | Cc1ccc(-c2cccc(C(=O)N3CCC(C)CC3)c2)cc1 [1b, (4’-Methyl-[1,1’-biphenyl]-3-yl)(4-methylpiperidin-1-yl)methanone] | > 90 % of control | 0.0477 | 52 % of control | 1 % of control | 
2 | Cc1ccc(-c2cccc(C(=O)N3CCCCCC3)c2)cn1 [2e, Azepan-1-yl-(3-(6-methylpyridin-3-yl)phenyl)methanone] | > 90 % of control | 0.046 | 30 % of control |  | 
3 | Cc1ccc(-c2cccc(C(=O)N3CCCC(C)(C)C3)c2)cc1F [3a, (3,3-Dimethylpiperidin-1-yl)(3’-fluoro-4’-methyl-[1,1’-biphenyl]-3-yl)methanone] | > 90 % of control | 0.0472 | 60 % of control | 3 % of control | 
4 | Cc1ccc(-c2cccc(C(=O)N3CCC(C)CC3)c2)cc1F [3b] | > 90 % of control | 0.0538 | 44 % of control | 1 % of control | 
5 | Cc1ccc(-c2cccc(C(=O)N3CCOC(C)(C)C3)c2)cc1F [3c, (2,2-Dimethylmorpholino)(3’-fluoro-4’-methyl-[1,1’-biphenyl]-3-yl)methanone] |  | 0.0279 | 14 % of control | 1 % of control | 
6 | Cc1ccc(-c2cccc(C(=O)N3CC(C)OC(C)C3)c2)cc1F (centres unmarked) [3d, (2,6-Dimethylmorpholino)(3’-fluoro-4’-methyl-[1,1’-biphenyl]-3-yl)methanone] | > 90 % of control |  | 44 % of control | 4 % of control | 
7 | CC1CCN(C(=O)c2cccc(-c3ccc(F)cc3)c2)CC1 [4b, (4’-Fluoro-[1,1’-biphenyl]-3-yl)(4-methylpiperidin-1-yl)methanone] | > 90 % of control |  | 43 % of control | 4 % of control | 
8 | CC1CCN(C(=O)c2cccc(-c3ccc(Cl)cc3)c2)CC1 [5b, (4’-Chloro-[1,1’-biphenyl]-3-yl)(4-methylpiperidin-1-yl)methanone] | > 90 % of control |  | 58 % of control | 3 % of control | 
9 | CC1CCN(C(=O)c2cccc(-c3ccccc3Cl)c2)CC1 [6b, (2’-Chloro-[1,1’-biphenyl]-3-yl)(4-methylpiperidin-1-yl)methanone] | > 90 % of control | 0.0622 | 49 % of control | 4 % of control | 
10 | NC(=O)[C@@H]1CCCN1C(=O)c1cccc(-c2ccccc2Cl)c1 [6f, (S)-1-(2’-Chloro-[1,1’-biphenyl]-3-carbonyl)-pyrrolidine-2-carboxamide] | > 90 % of control |  | > 90 % of control | > 90 % of control | inactive
